We go through 1 compound from patent US11559528B2, “BACE1 inhibition for the treatment of cancer” (The Cleveland Clinic Foundation, priority 2019, dated 2023).

One assay has as its system GBM xenografts (T387). As to the kind of experiment: Intracranial GBM xenografts from T387 glioma stem cells. In kind it is in vivo, mouse. An excerpt:
FIG. 13, panels A-C. BACE1 Inhibition by MK-8931 Converts M2 TAMs into M1 Macrophages in GBM Xenografts. (A and B) Density analysis of M2 TAMs by immunofluorescent staining of the M2 TAM marker (CD163 or FIZZ1) and the total TAM marker IBA1 and in GBM xenografts (T387) treated with MK-8931 or vehicle control. GBM xenografts were established by implantation of glioma stem cells (T387) through intracranial injection. […] Representative immunofluorescent images (A) showing M2 TAMs (CD163′ or FIZZ1^+, in red) and total TAMs (IBA1^+, in green) in the MK-8931-treated or control GBM xenografts. […] (C and D) Density analysis of M1 TAMs by immunofluorescent staining of the M TAM marker (HLA-DR or CD11c) and the total TAM marker IBA1 and in GBM xenografts (T387) treated with MK-8931 or vehicle control. […] Representative immunofluorescent images (C) showing M1 TAMs (HLA-DR^+ or CD11c^+, in red) and total TAMs (IBA1^+, in green) in the MK-8931-treated or control GBM xenografts. […] Scale bars represent 3 μM. Ctl: Control; MK: MK-8931.
(A-C) A preclinical trial of MK-8931 for GBM treatment in GSC-derived xenograft models. […] When humane endpoints occur, mouse was anesthetized and brain bearing tumor was harvested. Representative bioluminescent images (A) of intracranial GBM xenografts treated with MK-8931 or the vehicle control on day 7 (before treatment), day 17 and day 27 (treatment for 10 and 20 days) are shown. […] (D and E) In vivo phagocytosis of TAMs against human glioma cells in GBM xenografts treated with MK-8931 or the vehicle control. […] Representative images (D) showing in vivo TAM phagocytosis as the inclusion body of a glioma cell (TRA-1-85+, in red) within a TAM (IBA1^+, in green) in the MK-8931 treated GBM xenografts but not in the control tumors. […] (F and G) Detection of apoptosis by immunofluorescent staining of cleaved caspase-3 the GSC-derived xenografts treated with MK-8931 or the vehicle control. […] (H and I) Vessel density analysis by immunofluorescent staining of CD31 in the GSC-derived xenografts treated with MK-8931 or the vehicle control.

For assay [1], the system named is GSCs (T387, T4121, and U87). Kind of assay: Cell viability (cell titer) assay on glioma stem cells. Type of assay: cell-based, human. To be noted: MK-8931 10 and 50 μg/mL, three days. As to the method:
FIG. 16, panels A-E. MK-8931 Treatment Had Little Effect on Glioma Stem Cells. (A and B) Tumorsphere formation assay to examine the effect of MK-8931 treatment on glioma stem cells (GSCs). Representative images (A) of tumorsphere derived from T4121 GSCs treated with MK-8931 (50 μg/mL) or the vehicle control. Quantifications (B) show the number and size of tumorsphere derived from T4121 GSCs treated with MK-8931 (50 μg/mL) or the control. Data are shown as mean±SEM. NS (not significant)≥0.05, Student's t-test. […] GAPDH was blotted as loading control. (D) Immunoblot analysis of the apoptotic markers cleaved-PARP and cleaved caspase-3 in GSCs (T387 and T4121) treated with MK-8931 (50 μg/mL), etoposide (Etop, 1 μM), or the vehicle control for different time as indicated. GAPDH was blotted as loading control. […] Ctl: Control; Etop: Etoposide. (E) Cell viability assay to examine the effect of MK-8931 treatment on proliferation of glioma stem cells. […] Data are shown as mean±SEM. NS (not significant)≥0.05, Student's t-test.
Cell viability assay was performed by using a Cell Titer-Glo Luminescent Cell Viability Assay Kit according to the manufacturer's instruction (Promega, G7571). For this assay, 1,000 cells were seeded on one well of a 96-well plate in 100 μL of stem cell medium. […] Plate was loaded on the VICTOR Multilabel Plate Reader (PerkinElmer) and the readout were recorded and analyzed. […]

A further assay has as its system H1002 lung cancer cells. As to the kind of experiment: Subcutaneous lung cancer xenografts (H1002). In kind it is in vivo, mouse. Particulars: 50 mg/kg once daily oral gavage, from two weeks after inoculation; p<0.01. Here is the method: (A) Effects of BACE1 inhibitors on lung cancer cell proliferation. H1002 and H146 lung cancer cells were treated with the indicated concentrations of the BACE1 inhibitor AZD3293, MK-8931, AZD3839, or PF-06751979 (PF) for 72 hours. Cell viability was assessed by cell titer assay (n=3). (B-D) A preclinical trial of MK-8931 for lung cancer treatment in xenograft models. H1002 lung cancer cells (5×106) were transplanted into mouse right flank through subcutaneous injection to establish subcutaneous lung cancer xenografts. […] Tumors dissected from mice of each group were photographed (C) and weighed (D). […] Data are shown as mean SEM. p **<0.01, Student's t-test.

[2] abbreviates: 30 mg/kg once daily oral gavage two weeks, p<0.001.
Setting [3] is: 30 mg/kg once daily oral, p<0.01.
The mark [4] stands for this setting: 30 mg/kg once daily oral, p<0.05.

Take `CN1C(N)=N[C@](C)(c2cc(NC(=O)c3ccc(F)cn3)ccc2F)CS1(=O)=O` [MK-8931]: in the assay with GBM xenografts (T387) (setting [2]), the “density of M1 TAMs (HLA-DR+/IBA1+ or CD11c+/IBA1+)” value is “significantly increased density of M1 TAMs” and the “density of M2 TAMs (CD163+/IBA1+ or FIZZ1+/IBA1+)” value is listed as “significantly reduced density of M2 TAMs”. Besides, the “tumor growth (mean bioluminescence)” value in the assay with GBM xenografts (T387) (30 mg/kg once daily oral, day 7, 17 and 27) is listed as “Suppressed GBM Tumor Growth”. Moreover, in the assay with GBM xenografts (T387) (30 mg/kg once daily oral, log-rank p<0.05), the “survival (Kaplan-Meier)” value was “significantly extended the survival of animals bearing the GBM xenografts”. Further, in the assay with GBM xenografts (T387) (setting [3]), the “apoptosis (cleaved caspase-3+ cells)” value was “significantly increased apoptosis”, the “in vivo TAM phagocytosis (inclusion bodies)” value is “promoted TAM phagocytosis” and the “proliferative cells (Ki-67+)” value was “significantly reduced proliferative cells”. Besides, in the assay on GBM xenografts (T387) (setting [4]), the “GSC population (SOX2+ cells)” value is given as “significant reduced GSCs” and the “vessel density (CD31)” value is on record as “significantly reduced vessel density”. Moreover, the “proliferation / cell viability of glioma stem cells (cell titer)” value in assay [1] was “did not affect”. In addition, the “tumor growth (tumor weight)” value in the assay with H1002 lung cancer cells is “markedly inhibited lung tumor growth”.
